Targets include Cytochrome P450 2C9 (Homo sapiens, UniProt P11712); Cytochrome P450 3A4 (Homo sapiens, UniProt P08684); Cytochrome P450 2D6 (Homo sapiens, UniProt P10635).
For a further data set, the target named is Cytochrome P450 2C19 (Homo sapiens, UniProt P33261). As to the kind of experiment: Cytochrome panel assay with activity outcomes. Panel member name: p450-cyp2c19 Compounds with AC50 equal or less than 10 uM are considered active. Type of data set: functional. To be noted: read-out: AC50.
The target in data set [1] is T1, Fatty acid synthase (Homo sapiens, UniProt P49327). Nature of the data set: inhibition of human FAS-TE enzyme activity – biochemical, endpoint fluorescence intensity, uHTS hits, dose response (AID 624327).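 Note: fluorescence from hydrolysis of an O-methyl fluorescein acyl ester substrate by the enzyme.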 The format is functional.
Data set [2] has as its target T1, Fatty acid synthase. Nature of the data set: inhibition of human FAS-TE enzyme activity – biochemical, kinetic fluorescence intensity, dose response (AID 624326).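 Note: rate of fluorescence rise from hydrolysis of a fluorogenic O-methyl fluorescein ester substrate.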 The format is functional.
The target of data set [3] is T2, Carboxy-terminal domain RNA polymerase II polypeptide A small phosphatase 1 (Homo sapiens, UniProt Q9GZU7).
T2 sequence (Q9GZU7 whole entry): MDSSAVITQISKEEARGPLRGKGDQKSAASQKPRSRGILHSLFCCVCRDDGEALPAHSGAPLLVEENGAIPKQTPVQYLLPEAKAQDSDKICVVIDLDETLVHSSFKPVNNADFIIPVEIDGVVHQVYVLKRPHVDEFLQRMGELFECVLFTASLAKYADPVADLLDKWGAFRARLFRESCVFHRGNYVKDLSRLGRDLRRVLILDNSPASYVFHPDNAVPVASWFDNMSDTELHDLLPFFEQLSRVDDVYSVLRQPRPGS
As to the kind of experiment: CTDSP1 inhibitors, concentration-response, biochemical, absorbance readout, ultra-high-throughput screen actives (AID 540297). The format is functional.

The target in a further data set is T3, Cytochrome P450 1A2 (Homo sapiens, UniProt P05177).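 Note: PubChem cytochrome P450 panel assay, CYP1A2 panel member.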
T3 sequence (P05177 whole entry): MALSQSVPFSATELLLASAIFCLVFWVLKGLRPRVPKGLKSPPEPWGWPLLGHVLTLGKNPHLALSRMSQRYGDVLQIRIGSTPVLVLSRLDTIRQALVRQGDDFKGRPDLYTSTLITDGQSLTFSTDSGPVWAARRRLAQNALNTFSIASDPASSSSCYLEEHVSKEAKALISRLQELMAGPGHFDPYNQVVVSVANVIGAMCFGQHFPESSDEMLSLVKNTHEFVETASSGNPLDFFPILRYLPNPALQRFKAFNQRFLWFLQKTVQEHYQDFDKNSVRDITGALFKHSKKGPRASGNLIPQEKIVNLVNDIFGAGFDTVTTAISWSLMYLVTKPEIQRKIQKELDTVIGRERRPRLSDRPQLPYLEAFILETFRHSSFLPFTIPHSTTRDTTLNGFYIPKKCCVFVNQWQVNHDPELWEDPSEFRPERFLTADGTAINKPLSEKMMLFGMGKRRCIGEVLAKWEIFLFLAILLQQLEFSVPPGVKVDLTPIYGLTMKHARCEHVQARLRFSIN

Data set [4] can be described thus: blockers of HIV-1 envelope-mediated cell-cell fusion – cherry-pick, dose response (AID 652057). Type of data set: functional, cell-based.
Data set [5] is described as follows: blockers of HIV-1 ZM109 envelope-driven cell-cell fusion – HeLa effector, CEM target cells, luciferase, cherry-pick, dose response (AID 652058).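 Note: luciferase signal from HIV-1 Env mediated cell-cell fusion of effector and target cells.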 The format is functional, cell-based.
A short description of data set [6]: off-target signal loss in HeLa-CEM21 co-culture – HeLa F-luc CTL cells, cherry-picked, counter-screen for HIV-1 Env fusion inhibitor project, dose response (AID 652040).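 Note: potency for signal decrease marking cytotoxic or nonspecific inhibition.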 Type of data set: functional, cell-based. (In general: A counterscreen serves to expose hits that act by an unwanted route or on another target.)
Data set [7] is described as follows: HIV-1 AD8 envelope cell-cell fusion blockers – cherry-pick, dose response (AID 652062).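 Note: luciferase signal from cell-cell fusion driven by HIV-1 clade B AD8 Env; potency is for inhibitors of fusion seen as a drop in luminescence.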 The format is functional, cell-based.
Data set [8] can be described thus: blockers of bursicon-stimulated LGR2 cAMP reporter – cell-based, HEK293, CRE-luciferase reporter, cherry pick, set 2, dose response (AID 743343).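 Note: transfected cells were stimulated with diluted bursicon conditioned medium after compound addition.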 The format is functional. In general terms: Reporter assays use an easily measured gene product as a stand-in for the process of interest.
Data set [9] is described as follows: blockade of melanocortin 4 receptor signaling – cell-based, plate reader, cherry pick, counter-screen for LGR2 antagonist project, dose response (AID 743444).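 Note: transfected HEK 293 cells stimulated with alpha-MSH peptide; potency of inhibitors of the alpha-MSH evoked signal.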 The format is functional.
The target in a further data set is Paired box protein Pax-8 (Homo sapiens, UniProt Q06710). Nature of the data set: PAX8 transcriptional activity inhibition in RMG-I – RMG-I cells, luciferase, cherry-pick, dose response (AID 687027).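 Note: luciferase reporter driven by Pax8 target thyroperoxidase promoter measured by SteadyGlo luminescence.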 The format is functional, cell-based.
Data set [10] is described as follows: OVCAR8 cell viability loss – plate reader, dry powder samples, PAX8 project, dose response (AID 743197). Type of data set: functional, cell-based. Conditions: OVCAR-8.
The target of a further data set is Nonstructural protein 1 (Influenza A virus, UniProt Q194T2). The format is functional, Influenza A virus (A/California/07/2009(H1N1)).

The source made the active and inactive calls.

T1 sequence (P49327 whole entry): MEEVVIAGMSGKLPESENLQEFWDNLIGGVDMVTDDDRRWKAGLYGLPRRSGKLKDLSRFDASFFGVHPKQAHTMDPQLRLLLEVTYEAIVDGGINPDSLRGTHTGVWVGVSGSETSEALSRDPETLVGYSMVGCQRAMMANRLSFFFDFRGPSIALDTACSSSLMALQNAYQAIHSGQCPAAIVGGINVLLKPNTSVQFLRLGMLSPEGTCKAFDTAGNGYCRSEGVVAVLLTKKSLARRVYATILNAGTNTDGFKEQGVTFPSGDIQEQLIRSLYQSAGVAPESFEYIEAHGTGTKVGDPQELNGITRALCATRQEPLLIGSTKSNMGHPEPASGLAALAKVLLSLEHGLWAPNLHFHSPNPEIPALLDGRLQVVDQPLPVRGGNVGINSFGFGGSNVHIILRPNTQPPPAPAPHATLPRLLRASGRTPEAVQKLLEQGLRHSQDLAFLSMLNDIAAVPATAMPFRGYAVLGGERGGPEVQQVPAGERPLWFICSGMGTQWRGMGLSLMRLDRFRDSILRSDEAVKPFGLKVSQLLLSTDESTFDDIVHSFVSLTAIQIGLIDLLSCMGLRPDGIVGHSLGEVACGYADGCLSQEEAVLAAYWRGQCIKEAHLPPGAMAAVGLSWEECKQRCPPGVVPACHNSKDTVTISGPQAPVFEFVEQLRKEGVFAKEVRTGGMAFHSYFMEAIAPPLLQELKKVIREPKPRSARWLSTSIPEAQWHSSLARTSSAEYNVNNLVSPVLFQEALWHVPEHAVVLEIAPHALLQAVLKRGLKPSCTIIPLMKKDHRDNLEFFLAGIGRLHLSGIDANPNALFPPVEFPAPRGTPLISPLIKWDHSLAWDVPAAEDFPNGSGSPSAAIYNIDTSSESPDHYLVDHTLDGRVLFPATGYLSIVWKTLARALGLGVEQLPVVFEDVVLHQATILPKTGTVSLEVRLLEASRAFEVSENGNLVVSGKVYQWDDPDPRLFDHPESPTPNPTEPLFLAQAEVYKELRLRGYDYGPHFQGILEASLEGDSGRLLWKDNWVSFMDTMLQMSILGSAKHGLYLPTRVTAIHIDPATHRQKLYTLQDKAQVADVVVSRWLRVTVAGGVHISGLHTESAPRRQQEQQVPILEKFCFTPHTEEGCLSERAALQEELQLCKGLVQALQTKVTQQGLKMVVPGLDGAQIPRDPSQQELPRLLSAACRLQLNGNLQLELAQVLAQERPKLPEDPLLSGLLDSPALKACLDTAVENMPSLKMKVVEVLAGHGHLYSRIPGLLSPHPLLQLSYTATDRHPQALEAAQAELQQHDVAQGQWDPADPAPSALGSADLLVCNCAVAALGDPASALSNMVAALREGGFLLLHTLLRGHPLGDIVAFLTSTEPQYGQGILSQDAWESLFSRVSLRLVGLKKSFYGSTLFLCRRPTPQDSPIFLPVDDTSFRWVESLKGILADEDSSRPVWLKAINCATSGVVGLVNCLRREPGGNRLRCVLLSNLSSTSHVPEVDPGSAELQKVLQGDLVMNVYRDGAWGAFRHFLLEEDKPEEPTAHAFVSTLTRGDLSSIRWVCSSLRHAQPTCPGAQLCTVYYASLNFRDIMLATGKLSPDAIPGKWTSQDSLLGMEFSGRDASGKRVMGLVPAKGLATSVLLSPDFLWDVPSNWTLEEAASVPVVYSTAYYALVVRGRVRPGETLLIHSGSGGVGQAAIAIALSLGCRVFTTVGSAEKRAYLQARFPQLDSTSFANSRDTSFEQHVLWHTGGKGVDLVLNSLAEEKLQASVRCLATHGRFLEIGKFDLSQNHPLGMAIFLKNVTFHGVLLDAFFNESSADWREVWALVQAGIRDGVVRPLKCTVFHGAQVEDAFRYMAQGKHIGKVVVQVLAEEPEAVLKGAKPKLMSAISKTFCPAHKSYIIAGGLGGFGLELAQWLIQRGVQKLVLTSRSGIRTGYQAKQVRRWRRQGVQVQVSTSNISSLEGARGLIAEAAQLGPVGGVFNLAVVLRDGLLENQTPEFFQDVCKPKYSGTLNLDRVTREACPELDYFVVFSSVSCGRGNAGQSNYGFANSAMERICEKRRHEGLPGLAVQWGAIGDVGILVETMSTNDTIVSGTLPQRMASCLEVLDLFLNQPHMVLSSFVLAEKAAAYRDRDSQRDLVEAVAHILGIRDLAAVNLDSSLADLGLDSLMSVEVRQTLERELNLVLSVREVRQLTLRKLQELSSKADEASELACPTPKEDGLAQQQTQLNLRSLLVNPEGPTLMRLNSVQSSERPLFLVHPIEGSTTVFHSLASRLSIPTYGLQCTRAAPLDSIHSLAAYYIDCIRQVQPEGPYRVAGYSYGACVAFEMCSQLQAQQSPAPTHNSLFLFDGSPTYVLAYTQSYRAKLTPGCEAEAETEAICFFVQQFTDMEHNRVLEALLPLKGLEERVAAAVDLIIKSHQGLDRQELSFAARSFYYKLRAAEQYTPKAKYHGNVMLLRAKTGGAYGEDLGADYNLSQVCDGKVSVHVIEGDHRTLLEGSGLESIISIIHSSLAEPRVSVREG
Cytochrome P450 2C9, sequence (P11712 whole entry): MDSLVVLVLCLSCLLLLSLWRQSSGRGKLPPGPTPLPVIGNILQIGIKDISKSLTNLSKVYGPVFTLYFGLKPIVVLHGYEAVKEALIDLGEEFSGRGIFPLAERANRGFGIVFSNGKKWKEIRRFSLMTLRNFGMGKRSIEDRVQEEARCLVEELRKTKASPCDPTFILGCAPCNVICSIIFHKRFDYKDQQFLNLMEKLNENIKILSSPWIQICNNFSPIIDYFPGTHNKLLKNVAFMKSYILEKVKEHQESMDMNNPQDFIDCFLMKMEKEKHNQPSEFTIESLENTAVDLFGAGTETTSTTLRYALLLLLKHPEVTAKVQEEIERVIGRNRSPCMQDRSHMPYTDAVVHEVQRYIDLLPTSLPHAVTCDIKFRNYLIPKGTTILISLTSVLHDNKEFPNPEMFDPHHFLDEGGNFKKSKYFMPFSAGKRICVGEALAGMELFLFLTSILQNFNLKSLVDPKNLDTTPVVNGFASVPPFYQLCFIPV
Paired box protein Pax-8, sequence (Q06710 whole entry): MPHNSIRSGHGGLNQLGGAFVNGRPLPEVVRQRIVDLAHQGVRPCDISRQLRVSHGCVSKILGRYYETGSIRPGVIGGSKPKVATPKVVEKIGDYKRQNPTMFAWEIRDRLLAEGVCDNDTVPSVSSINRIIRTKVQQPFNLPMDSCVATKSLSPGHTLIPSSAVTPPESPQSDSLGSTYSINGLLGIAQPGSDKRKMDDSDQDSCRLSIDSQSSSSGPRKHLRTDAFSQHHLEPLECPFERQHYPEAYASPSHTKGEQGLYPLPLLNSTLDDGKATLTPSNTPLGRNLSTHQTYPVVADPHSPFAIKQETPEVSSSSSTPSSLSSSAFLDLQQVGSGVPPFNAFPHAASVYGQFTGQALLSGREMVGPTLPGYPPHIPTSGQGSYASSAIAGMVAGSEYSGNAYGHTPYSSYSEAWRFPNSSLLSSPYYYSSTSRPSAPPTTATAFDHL
Cytochrome P450 2D6, sequence (P10635 whole entry): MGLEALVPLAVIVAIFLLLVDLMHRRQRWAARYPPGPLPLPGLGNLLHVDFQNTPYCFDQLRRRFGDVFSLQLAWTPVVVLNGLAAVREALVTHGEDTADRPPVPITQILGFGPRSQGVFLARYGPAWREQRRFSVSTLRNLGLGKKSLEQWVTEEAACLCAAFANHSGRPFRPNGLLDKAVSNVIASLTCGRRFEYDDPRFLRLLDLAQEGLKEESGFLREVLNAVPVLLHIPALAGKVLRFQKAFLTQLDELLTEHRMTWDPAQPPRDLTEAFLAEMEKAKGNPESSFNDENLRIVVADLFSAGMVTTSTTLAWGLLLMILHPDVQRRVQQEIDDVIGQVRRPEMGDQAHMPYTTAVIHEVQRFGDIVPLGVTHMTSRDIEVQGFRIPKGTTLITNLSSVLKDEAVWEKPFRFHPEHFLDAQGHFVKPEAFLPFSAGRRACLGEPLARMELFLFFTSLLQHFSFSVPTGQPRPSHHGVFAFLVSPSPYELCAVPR
Cytochrome P450 3A4, sequence (P08684 whole entry): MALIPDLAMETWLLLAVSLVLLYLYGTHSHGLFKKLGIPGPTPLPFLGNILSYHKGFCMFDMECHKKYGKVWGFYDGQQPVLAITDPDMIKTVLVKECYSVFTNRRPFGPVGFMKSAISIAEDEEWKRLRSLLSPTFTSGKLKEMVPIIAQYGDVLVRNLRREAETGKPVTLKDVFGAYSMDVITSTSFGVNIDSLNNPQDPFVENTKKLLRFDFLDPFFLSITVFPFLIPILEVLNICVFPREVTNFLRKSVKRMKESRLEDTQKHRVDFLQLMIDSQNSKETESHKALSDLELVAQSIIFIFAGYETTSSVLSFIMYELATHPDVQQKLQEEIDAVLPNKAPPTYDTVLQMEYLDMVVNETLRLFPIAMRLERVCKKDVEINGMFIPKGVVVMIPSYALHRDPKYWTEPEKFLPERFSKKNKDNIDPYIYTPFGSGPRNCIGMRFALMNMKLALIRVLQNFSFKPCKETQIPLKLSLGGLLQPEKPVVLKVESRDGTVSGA
Cytochrome P450 2C19, sequence (P33261 whole entry): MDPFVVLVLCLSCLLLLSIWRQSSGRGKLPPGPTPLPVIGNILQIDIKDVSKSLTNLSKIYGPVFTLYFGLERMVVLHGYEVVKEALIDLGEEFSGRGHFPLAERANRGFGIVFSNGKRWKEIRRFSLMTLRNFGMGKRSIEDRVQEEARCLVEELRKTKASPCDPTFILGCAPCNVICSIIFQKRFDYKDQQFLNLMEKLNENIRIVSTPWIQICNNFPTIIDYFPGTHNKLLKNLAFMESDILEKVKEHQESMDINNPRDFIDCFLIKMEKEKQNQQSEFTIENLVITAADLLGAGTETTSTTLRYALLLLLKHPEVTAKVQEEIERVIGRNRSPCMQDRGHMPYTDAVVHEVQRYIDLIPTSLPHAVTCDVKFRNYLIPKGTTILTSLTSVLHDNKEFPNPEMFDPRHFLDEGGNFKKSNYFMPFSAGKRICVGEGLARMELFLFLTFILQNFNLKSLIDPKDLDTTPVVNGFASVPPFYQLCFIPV

For `O=C(Nc1cccn2ncnc12)c1ccc(Cl)cc1Cl`, the AC50 at Cytochrome P450 2C19 was 11.2 µM (inconclusive); on Cytochrome P450 2C9, “inconclusive”.

`CNC(=O)/C(=C\C=C\c1ccccc1)NC(=O)c1ccc([N+](=O)[O-])cc1`: the IC50 at Fatty acid synthase [1] was 0.786 µM (active); at Fatty acid synthase [2] it was 0.809 µM (active).

With `Clc1ccc(CN2CCCN(Cc3ccc(Cl)cc3)C2c2cc3ccccc3c3ccccc23)cc1`, the AC50 entry at Cytochrome P450 2C9 was “inconclusive”.

Consider `Cn1c(=O)c2nc(COc3ccc(C(C)(C)C)cc3)[nH]c2n(C)c1=O`, for which the IC50 on Fatty acid synthase [1] is 4.28 µM (active); at Fatty acid synthase [2], 6.26 µM (active).

For `CCOC(=O)C1=CC[C@H]2c3c(c4ccccc4n3C)C(=O)C1N2C(=O)OC(C)(C)C`, the IC50 at Fatty acid synthase [1] was 10.8 µM (active); on Fatty acid synthase [2], 11.9 µM (active).

In the case of `COc1ccc2cc(C(=O)Nc3ccc(F)cc3)sc(=O)c2c1OC`, in [3], the IC50 is 6.77 µM (active). The AC50 result on Cytochrome P450 2C9 was “inconclusive”.

With `Oc1ccc(Cn2cc[nH]c2=S)cc1`, the half-maximal activity concentration (AC50) was 6.31 µM (inconclusive) at Cytochrome P450 1A2, 15.8 µM (inconclusive) at Cytochrome P450 3A4 and “inconclusive” at Cytochrome P450 2C9.

Regarding `CCCCN1CC(=O)N2[C@H]3c4ccccc4OC[C@@H]3[C@H](c3ccccc3)[C@]2(C)C1=O`, the AC50 was 3.64 µM (active) in data set [4], 0.448 µM (active) in data set [5], 4.48 µM (active) in data set [6] and 29.7 µM (active) in data set [7].

With `O=C(O)c1ccc(-c2noc(-c3ccccc3Cl)n2)cc1`, the AC50 is 28.3 µM (active) in [8] and 32.9 µM (active) in data set [9].

In the case of `COc1cccc(C(=O)Nc2cc(C(F)(F)F)ccc2Cl)c1`, the values for the half-maximal activity concentration (AC50) at Cytochrome P450 2D6 and on Cytochrome P450 2C9 were 28.2 µM (inconclusive) and “inconclusive”, respectively.

As to `COc1ccc(-c2cc([N+](=O)[O-])ccc2OCC(=O)N(C)CC(=O)Nc2ccc(C)cc2)cc1`, the IC50 on Fatty acid synthase [1] was 7.56 µM (active); on Fatty acid synthase [2] it was 7.78 µM (active).

As to `CC[C@@]1(C(=O)OC)N[C@H](CN(C)C(=O)Nc2ccc(F)cc2)[C@@H]2C(=O)N(Cc3ccccc3)C(=O)[C@@H]21`, the concentration at half-maximal activity (AC50) in data set [4] is 0.401 µM (active); in data set [5], 0.378 µM (active); in [6] it was 0.744 µM (active); in [7], 0.614 µM (active).

Take `C[C@H]1CCCCO[C@H](CN(C)C(=O)Nc2ccc(F)cc2)[C@@H](C)CN([C@@H](C)CO)C(=O)c2cc(NC(=O)Nc3ccc(C(F)(F)F)cc3)ccc2O1`: the AC50 is 8.09 µM (active) on Paired box protein Pax-8 and 58.3 µM (active) in [10].

In the case of `CC(C)CC#Cc1ccc2c(c1)O[C@H](CN(C)Cc1ccc(F)cc1)[C@H](C)CN([C@H](C)CO)S2(=O)=O`, the AC50 on Paired box protein Pax-8 is 23.1 µM (active); in [10] it was 61.2 µM (active).

With `Nc1nnc(CC(=O)N/N=C/c2cccc([N+](=O)[O-])c2)s1`, the AC50 on Cytochrome P450 1A2 is 31.6 µM (inconclusive); on Cytochrome P450 2C9, “inconclusive”.

With `Cc1cc(C(=O)N/N=C/c2cc([N+](=O)[O-])ccc2O)c2ccccc2n1`, the results for the IC50 on Nonstructural protein 1, on Fatty acid synthase [1] and at Fatty acid synthase [2] were 5.29 µM (active), 3.18 µM (active) and 2.75 µM (active), respectively.

As for `CCO/C(O)=C/c1nc2ccccc2sc1=O`, the AC50 was 5.7 µM (active) in [4], 5.06 µM (active) in data set [5], 5.57 µM (active) in [6] and 3 µM (active) in data set [7].

Broadly, the AC50 is the midpoint of the concentration-response curve, whichever way the signal moves. A word on the IC50: it is the point on the concentration scale where inhibition reaches its midpoint.
